In patent publication US9528992B2, “Methods and kits for detection of active malignancy” (priority 2012, dated 2016):

How the values were obtained:
albumin = albumin (Homo sapiens, UniProt P02768); settings: affinity of albumin for unlabeled stearic acid; cited from earlier work
serum albumin = biological target: T1, serum albumin (Homo sapiens, UniProt P02768); assay: EPR spectroscopy of spin probe binding to primary and secondary binding sites of serum albumin in patient serum
T1 construct: from tissue; host or cells: blood serum of patients (whole blood centrifugation)
Description: At the condition of binding equilibrium in the mixture of sample aliquot, probe, and solvent, the binding efficiencies (BE1 and BE2) of specific (primary) and non-specific (secondary) hydrophobic binding sites of serum albumin can be calculated using the concentrations of the probe bound on the primary site of albumin (B1), on the secondary albumin site (B2) and unbound probe concentration (F), and solvent concentration (S) in the mixture. For example, can be calculated with either: 1/BE1=1/(Kb1·N1)=(Sc/S−1)·(F/B1)·P·(1−B1/(P·N1)) (2) 1/BE2=1/(Kb2·N2)=(Sc/S−1)·(F/B2)·P·(1−B2/(P·N2)) (3) where Sc=0.27 volume percent is the critical concentration of the solvent (as described above), P is the concentration of serum albumin in the sample, N1 is the number of specific or primary binding sites for the probe on the serum albumin molecule, N2 is the number of non-specific or secondary binding sites for the probe between the albumin on the serum albumin molecule. Generally, where the probe is a long chain fatty acid, N1=7 and N2 is from 6 to 8 for purified albumin. For native serum albumin of a healthy person N1 is from 4 to 7, and N2 is from 3 to 7. In native serum samples, typically the relative concentration of the spin probe bound on primary site, parameter B1/P, is about 0.5; and parameter B2/P is about 0.4. Therefore, the binding efficiencies BE1 and BE2 can be calculated (within about 10%) using the approximate formulas: 1/BE1=(Sc/S−1)·(F/B1)·P (2a) 1/BE2=(Sc/S−1)·(F/B2)·P (3a)
In Table 2, B1 and B2 are relative concentrations of the probe bound on primary and secondary sites of albumin, F is the relative concentration of unbound probe, B1/F and B2/F are parameters representing the binding efficiency of the primary and secondary binding sites of albumin, DP is discriminating parameter designed by square discriminant analysis using a set of probe binding parameters.
Blood serum was obtained by whole blood centrifugation. An aliquot of 50 μl of serum from each patient was used for each test. A spin probe of 2-(14-carboxytetradecyl)-2-ethyl-4,4-dimethyl-3-oxazolidinyloxy (purchased from Fluorochem Ltd., Derbyshire, UK) was mixed into the aliquot at a concentration of 1.64 mmol/l. A solvent, 14 μl of ethanol, was mixed into the aliquot. The molar ratio of the probe to serum albumin in the aliquot was 3.5, based on an albumin concentration in the serum of 4 g/dL. The mixture was then incubated for 10 min at 37° C. with continuous agitation in a standard shaker operated at about 5-8 Hz.
After incubation, the probe was placed into a glass capillary (e.g., Model No. RM-40, available from KABE LABORTECHNIK GmbH, Numbrecht-Elsenroth, Germany).
The EPR spectrum of the mixture was then measured, as described below. The above-described capillary was placed into the resonator of an EPR spectrometer for spectroscopic analysis. The spectroscopy parameters were as follows: microwave power 15 mW at frequency 9.52 GHz; magnetic field 0.34 T (3400 G) with scan range 12 mT (120 G); modulation amplitude 0.2 mT (2 G); data accumulation by three scans each with 4096 measured points and a sweep time 60 s. The capillary temperature was 37° C., and was controlled within +/−0.2° C.
The EPR spectrum was analyzed by computer using an EPR-spectrum simulation with nonlinear least-squares fits. The spectrum model included five components. The first two are the B and C components which represent portions of the probe that were bound differently on serum albumin. As shown here, the B and C components primarily differed by spectral parameters of A tensors (hyperfine splitting tensor): A∥(B)=30.02 Oe, A⊥(B)=9.02 Oe, A∥(C)=21.5 Oe, and A⊥(C)=13.35 Oe. Parameters of the g tensor used in the spectral calculations of these two components were: g∥(B)=1.9983, g⊥(B)=2.0019, g∥(C)=1.9990, and g⊥(C)=2.0013. The third D component represented the unbound spin probe residing free in the sample. The parameters of the D component were: A∥(D)=A⊥(D)=15.6 Oe, and g∥(D)=g⊥(D)=2.0008. […]

[1] = cancer-free persons, Mean, serum albumin 0.47 mmol, spin probe 1.64 mmol, ethanol 0.22 volume percent
[2] = patients with active malignancies, Max
[3] = patients with active malignancies, Mean
[4] = patients with active malignancies, Mean, serum albumin 0.47 mmol, spin probe 1.64 mmol, ethanol 0.22 volume percent
[5] = patients with active malignancies, Min

T1 sequence (P02768 25-609): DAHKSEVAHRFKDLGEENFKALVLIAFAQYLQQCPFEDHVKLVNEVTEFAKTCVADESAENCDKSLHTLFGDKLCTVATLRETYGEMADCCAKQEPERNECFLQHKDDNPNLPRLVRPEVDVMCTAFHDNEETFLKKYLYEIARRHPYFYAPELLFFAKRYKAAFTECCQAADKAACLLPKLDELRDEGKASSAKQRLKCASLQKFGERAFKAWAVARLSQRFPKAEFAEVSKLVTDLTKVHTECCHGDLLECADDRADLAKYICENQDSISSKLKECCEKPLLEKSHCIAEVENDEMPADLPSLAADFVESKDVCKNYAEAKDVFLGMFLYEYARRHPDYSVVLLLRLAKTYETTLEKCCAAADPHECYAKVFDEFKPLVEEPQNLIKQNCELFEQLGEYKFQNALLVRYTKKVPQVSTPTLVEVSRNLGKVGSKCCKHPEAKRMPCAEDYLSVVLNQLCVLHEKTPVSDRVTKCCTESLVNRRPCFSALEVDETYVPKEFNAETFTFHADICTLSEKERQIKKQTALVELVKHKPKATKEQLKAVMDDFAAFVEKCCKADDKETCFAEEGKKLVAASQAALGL
Chain of albumin (P02768 25-609, species assumed): as the sequence (P02768 25-609) above

CCCCCCCCCCCCCCCCCC(=O)O [stearic acid]
binding constant (albumin): about 10^9 mol^−1

CCC1(CCCCCCCCCCCCCCC(=O)O)OCC(C)(C)N1[O] (stereo not shown) [16-doxyl stearic acid, 2-(14-carboxytetradecyl)-2-ethyl-4,4-dimethyl-3-oxazolidinyloxy]
B1, relative concentration of probe bound on primary sites of albumin (serum albumin; cancer-free persons, Max): 0.60 | B1/F, binding efficiency of primary binding sites of albumin (serum albumin; cancer-free persons, Max): 54.4 | B2, relative concentration of probe bound on secondary sites of albumin (serum albumin; cancer-free persons, Max): 0.45 | B2/F, binding efficiency of secondary binding sites of albumin (serum albumin; cancer-free persons, Max): 37.5 | DP, discriminating parameter (serum albumin; cancer-free persons, Max): −0.3 | F, relative concentration of unbound probe (serum albumin; cancer-free persons, Max): 0.044 | B1/F, binding efficiency of primary binding sites of albumin (serum albumin; cancer-free persons, Mean): 21.8 | B2/F, binding efficiency of secondary binding sites of albumin (serum albumin; cancer-free persons, Mean): 15.8 | DP, discriminating parameter (serum albumin; cancer-free persons, Mean): −3.3 | B1, relative concentration of probe bound on primary sites of albumin (serum albumin; [1]): 0.52 | B2, relative concentration of probe bound on secondary sites of albumin (serum albumin; [1]): 0.38 | F, relative concentration of unbound probe (serum albumin; [1]): 0.026 | B1, relative concentration of probe bound on primary sites of albumin (serum albumin; cancer-free persons, Min): 0.40 | B1/F, binding efficiency of primary binding sites of albumin (serum albumin; cancer-free persons, Min): 10.4 | B2, relative concentration of probe bound on secondary sites of albumin (serum albumin; cancer-free persons, Min): 0.34 | B2/F, binding efficiency of secondary binding sites of albumin (serum albumin; cancer-free persons, Min): 8.5 | DP, discriminating parameter (serum albumin; cancer-free persons, Min): −5.2 | F, relative concentration of unbound probe (serum albumin; cancer-free persons, Min): 0.010 | B1, relative concentration of probe bound on primary sites of albumin (serum albumin; [2]): 0.54 | B1/F, binding efficiency of primary binding sites of albumin (serum albumin; [2]): 11.4 | B2, relative concentration of probe bound on secondary sites of albumin (serum albumin; [2]): 0.38 | B2/F, binding efficiency of secondary binding sites of albumin (serum albumin; [2]): 6.5 | DP, discriminating parameter (serum albumin; [2]): 66.0 | F, relative concentration of unbound probe (serum albumin; [2]): 0.155 | B1/F, binding efficiency of primary binding sites of albumin (serum albumin; [3]): 5.9 | B2/F, binding efficiency of secondary binding sites of albumin (serum albumin; [3]): 4.5 | DP, discriminating parameter (serum albumin; [3]): 8.0 | B1, relative concentration of probe bound on primary sites of albumin (serum albumin; [4]): 0.44 | B2, relative concentration of probe bound on secondary sites of albumin (serum albumin; [4]): 0.33 | F, relative concentration of unbound probe (serum albumin; [4]): 0.079 | B1, relative concentration of probe bound on primary sites of albumin (serum albumin; [5]): 0.32 | B1/F, binding efficiency of primary binding sites of albumin (serum albumin; [5]): 2.3 | B2, relative concentration of probe bound on secondary sites of albumin (serum albumin; [5]): 0.23 | B2/F, binding efficiency of secondary binding sites of albumin (serum albumin; [5]): 1.6 | DP, discriminating parameter (serum albumin; [5]): 0.1 | F, relative concentration of unbound probe (serum albumin; [5]): 0.047
